Key:
[1] = test system: APP/PS1 Alzheimer's disease (AD) mouse model; assay: Dendritic spine density analysis (Golgi-Cox staining) in APP/PS1 AD mice; type: in vivo; conditions: for spine deficits in CA3 pyramidal neurons and dentate gyrus granule cells: 15-month-old male AD mice
[2] = test system: APP/PS1 Alzheimer's disease (AD) mouse model; assay: Contextual fear learning in AD mice; type: in vivo; conditions: 15-month-old male AD mice; 3.0 mg/kg/2nd day for 1 month; FIG. 3
Method: The therapeutic effect of fingolimod (FTY720) as an example for an S1PR modulator for use in the treatment of Alzheimer's disease was tested in an established double transgenic amyloid precursor protein/presenilin-1 (APP/PS1) Alzheimer's disease (AD) mouse model that starts to develop amyloid-β (Aβ) pathology in the neocortex and hippocampus at two and four months of age, respectively. This AD mouse model is particularly close to human AD pathology. Impaired LTP (long-term potentiation) at Schaffer collateral CA1 synapses in acute slices ex vivo is observed at five months in these mice and becomes detectable with in vivo recordings beyond six months of age. Moreover, hippocampus-dependent learning deficits in this APP/PS1 mouse model become apparent five to eight months after birth. […]
The analyses of the animals comprises dendritic spine density analysis, LTP recordings, Morris water maze spatial learning and memory testing, contextual fear condition training and memory testing, immunohistological stainings of microgliosis and astrogliosis, biochemical brain-derived neurotrophic factor (BDNF) quantification and downstream TrkB receptor (a high affinity BDNF receptor) signaling, and statistical analysis.

[3] = test system: CD11c+/CD14+ age/AD-associated microglia; assay: CD11c+/CD14+ age/AD-associated microglia in the cortex of AD mice; type: in vivo, mouse; conditions: 15-month-old male AD mice; 1.0 mg/kg/2nd day for 1 month; FIG. 9
Method: (§1) The therapeutic effect of fingolimod (FTY720) as an example for an S1PR modulator for use in the treatment of Alzheimer's disease was tested in an established double transgenic amyloid precursor protein/presenilin-1 (APP/PS1) Alzheimer's disease (AD) mouse model that starts to develop amyloid-β (Aβ) pathology in the neocortex and hippocampus at two and four months of age, respectively. This AD mouse model is particularly close to human AD pathology. Impaired LTP (long-term potentiation) at Schaffer collateral CA1 synapses in acute slices ex vivo is observed at five months in these mice and becomes detectable with in vivo recordings beyond six months of age. Moreover, hippocampus-dependent learning deficits in this APP/PS1 mouse model become apparent five to eight months after birth.
(§2) Male APP/PS1 mice and littermate controls (wild-type healthy mice) were treated with intraperitoneal (i.p.) injections of fingolimod (FTY720; dissolved in 3% DMSO, 1.0 mg/kg or 3.0 mg/kg body weight) every second day for 1 to 2 months.
(§3) Substance A: Control, Substance B: FTY720 (1.0 mg/kg/2nd day) for 1 month.

[4] = as above; type: in vivo, mouse; conditions: 15-month-old male AD mice; 1.0 mg/kg/2nd day for 1 month; FIG. 8
Method: as §1, §2, §3

Row | Structure (SMILES) | spine deficits in CA1 pyramidal neurons ([1]; 6-7-month-old male AD mice, low dose 0.2 mg/kg/2nd day for 1 month, FIG. 6) | spine deficits in CA3 pyramidal neurons and dentate gyrus granule cells ([1]; 1.0 mg/kg/2nd day for 1 month, near and distant to plaques, FIG. 4, 1 mg/kg) | spine deficits in CA3 pyramidal neurons and dentate gyrus granule cells ([1]; 1.0 mg/kg/2nd day for 1 month, near and distant to plaques, FIG. 4, listed as FTY, 1 mg/kg) | spine deficits in CA3 pyramidal neurons and dentate gyrus granule cells ([1]; 3.0 mg/kg/2nd day for 1 month, FIG. 5) | number of synaptic spines versus same-aged healthy mice (wild-type littermates) ([1]; AD mice at 6-7 months and 15-16 months, short-term treatment) | spine deficits in dendrites close to plaques ([1]; APP/PS1 mice, CA1 secondary apical dendrites <50 μm from nearest plaque, FIGS. 1 and 2) | spine deficits in dendrites distant to plaques ([1]; APP/PS1 mice, CA1 secondary apical dendrites >50 μm from closest plaque, FIGS. 1 and 2) | spine deficits in CA1 pyramidal neurons ([1]; male 15-month-old AD model mice, FIG. 1) | deficit in contextual fear learning [2] | increased number of CD11c+/CD14+ age/AD-associated microglia in the cortex [3] | increased frequency of CD11c+/CD14+ age/AD-associated microglia in the cortex [4] | spine deficits in CA1 pyramidal neurons ([1]; aged (16-month-old) male AD mice, 1 mg/kg via drinking water for 1 month, starting at 15 months, FIG. 7)
1 | CCCCCCCCc1ccc(CCC(N)(CO)CO)cc1 [Fingolimod] | restored spine deficits | restored spine deficits | completely rescued spine decrease near and distant to AB plaques | restored spine deficits | restored at both ages (6-7 months and 15-16 months) to the level of same-aged healthy mice | significant amelioration of spine deficits | complete rescue of spine deficits | restored spine deficits | restored the deficit | reduces the increased number | reduces the increased frequency | –
2 | CC(C)Oc1ccc(-c2nc(-c3cccc4c3CC[C@@H]4NCCO)no2)cc1C#N [Ozanimod] | – | – | – | – | – | – | – | – | – | – | – | very similar capacity to restore spine deficits

Source: US20250325501A1, “A SPHINGOSINE-1-PHOSPHATE RECEPTOR (S1PR) MODULATOR FOR USE IN TREATING A PATIENT SUFFERING FROM ALZHEIMER'S DEMENTIA” (Otto-von-Guericke-Universitaet Magdeburg, priority 2022, published 2025)
